Experimental data: ChEMBL document CHEMBL4765266, “Design, synthesis and structure-activity relationships of 4-phenyl-1H-1,2,3-triazole phenylalanine derivatives as novel HIV-1 capsid inhibitors with promising antiviral activities” (Eur J Med Chem, 2020)
Calls of active or inactive are those of the source. No cut-off for these calls is given here.

Experiments:
[1] = tested on: Human immunodeficiency virus 1; assay: Antiviral activity against HIV1 NL4-3 Env-deficient pseudotype virus infected in human U87/CD4/CCR5 cells assessed by reduction in viral production in early stage measured after 48 hrs by luciferase activity based single-round infection assay; format: functional, organism-based; conditions: Human immunodeficiency virus 1, NL4-3, U87/CD4/CCR5, 48 h
[2] = tested on: U87/CD4/CCR5; assay: Induction of HIV1 NL4-3 capsid protein assembly at 50 uM measured every 1 min for 19 mins by Spectrophotometer method; conditions: Human immunodeficiency virus 1
[3] = Metabolic stability in human plasma assessed as parent compound remaining after 120 mins by LC/MS/MS method; format: ADME, cell-free; conditions: 2 h
[4] = tested on: TZM; assay: Cytotoxicity against in human TZM-bl cells assessed as reduction in cell viability measured after 2 days by CytoTox-Glo cytotoxicity assay; conditions: 48 h
[5] = tested on: Human immunodeficiency virus 1; assay: Antiviral activity against HIV1 NL4-3 Env-pseudotype virus in human U87/CD4/CCR5 cells assessed as reduction in p24 production at 10 uM by ELISA reader relative to control; format: functional
[6] = Binding affinity to HIV1 NL4-3 capsid protein monomer assessed as dissociation constant by SPR analysis; parameters: species or system Human immunodeficiency virus 1
[7] = Metabolic stability in human plasma assessed as parent compound remaining after 30 mins by LC/MS/MS method; format: ADME, cell-free; conditions: 0.5 h
[8] = Metabolic stability in human plasma assessed as parent compound remaining after 10 mins by LC/MS/MS method; format: ADME, cell-free
[9] = Metabolic stability in human plasma assessed as parent compound remaining after 60 mins by LC/MS/MS method; format: ADME, cell-free; conditions: 1 h
[10] = tested on: Human immunodeficiency virus 1; assay: Antiviral activity against HIV1 NL4-3 infected in human TZM-bl cells assessed as reduction in virus induced cytopathic effect measured after 2 days by luciferase gene expression assay; format: functional, organism-based; conditions: Human immunodeficiency virus 1, NL4-3, TZM-bl, 48 h
[11] = human, microsomes, 1 h
[12] = tested on: Human immunodeficiency virus 1; assay: Antiviral activity against HIV1 NL4-3 Env-deficient pseudotype virus infected in human U87/CD4/CCR5 cells assessed by reduction in viral production in late stage measured after 48 hrs by luciferase activity based single-round infection assay; format: functional, organism-based; conditions: Human immunodeficiency virus 1, NL4-3, U87/CD4/CCR5, 48 h
[13] = in vitro; conditions: human, TZM-bl cells
Description: Selectivity index, ratio of CC50 for human TZM-bl cells to EC50 for HIV1 NL4-3 infected in human TZM-bl cells

[14] = Binding affinity to HIV1 NL4-3 capsid protein hexamer assessed as dissociation constant by SPR analysis; parameters: species or system Human immunodeficiency virus 1

Row | Structure (SMILES) | CC50 [4] [µM] | EC50 [10] [µM] | selectivity ratio [13] | further results
1 | Cc1[nH]c2ccccc2c1CC(=O)N[C@@H](Cc1ccccc1)C(=O)N(C)c1ccccc1 | > 23.5 | 0.28 |  | IC50 [1]: 0.056 µM; Activity [2]: Active; Stabilty [3]: 85.6%; inhibition [5]: Active; Kd [6]: 2.4 µM; Stabilty [7]: 83.4%; Stabilty [8]: 87.3%; Stabilty [9]: 86.5%; CLH [11]: 2403 µL/min/mg; IC50 [12]: 0.23 µM
2 | COc1ccc(N(C)C(=O)[C@H](Cc2ccccc2)NC(=O)Cn2cc(-c3cccc(NC(=O)c4ccccc4F)c3)nn2)cc1 | > 16.5 | 13.5 | > 1.22 | 
3 | COc1ccc(N(C)C(=O)[C@H](Cc2ccccc2)NC(=O)Cn2cc(-c3cccc(NC(=O)c4cccc(OC)c4)c3)nn2)cc1 | > 16.2 | > 16.2 |  | 
4 | CC(C)[N+](C)(CCOC(=O)C1c2ccccc2Oc2ccccc21)C(C)C.[Br-] [PROPANTHELINE BROMIDE] |  |  |  | Stabilty [7]: 9.1%; Stabilty [8]: 47.7%; Stabilty [9]: 0.6%
5 | COc1ccc(N(C)C(=O)[C@H](Cc2ccccc2)NC(=O)Cn2cc(-c3ccccc3NC(=O)c3cccc(F)c3)nn2)cc1 | > 16.5 | 3.3 | > 4.99 | Kd [6]: 6.8 µM; Kd [14]: 4.99 µM
6 | COc1ccc(N(C)C(=O)[C@H](Cc2ccccc2)NC(=O)Cn2cc(-c3ccccc3NC(=O)c3ccccc3OC)nn2)cc1 | > 16.2 | 8.41 | > 1.92 | 
7 | COc1ccc(N(C)C(=O)[C@H](Cc2ccccc2)NC(=O)Cn2cc(-c3ccccc3NC(=O)c3ccccc3)nn2)cc1 | > 17 | 3.74 | > 4.54 | 
8 | COc1ccc(N(C)C(=O)[C@H](Cc2ccccc2)NC(=O)Cn2cc(-c3ccc(NC(=O)c4ccccc4)cc3)nn2)cc1 | > 17 | 12.9 | > 1.32 | 
9 | COc1ccc(N(C)C(=O)[C@H](Cc2ccccc2)NC(=O)Cn2cc(-c3ccc(NC(=O)c4ccc(C#N)cc4)cc3)nn2)cc1 | > 16.3 | 12.4 | > 1.32 | 
10 | COc1ccc(N(C)C(=O)[C@H](Cc2ccccc2)NC(=O)Cn2cc(-c3ccccc3NC(=O)c3ccc(C)cc3)nn2)cc1 | > 16.6 | > 16.6 |  | 
11 | COc1ccc(N(C)C(=O)[C@H](Cc2ccccc2)NC(=O)Cn2cc(-c3ccc(N)cc3)nn2)cc1 | > 20.6 | 13.6 | > 1.51 | 
12 | COc1ccc(N(C)C(=O)[C@H](Cc2ccccc2)NC(=O)Cn2cc(-c3ccc(NC(=O)c4ccccc4F)cc3)nn2)cc1 | > 16.5 | 11.9 | > 1.39 | 
13 | COc1ccc(N(C)C(=O)[C@H](Cc2ccccc2)NC(=O)Cn2cc(-c3cccc(NC(=O)c4cccc(F)c4)c3)nn2)cc1 | > 16.5 | 9.56 | > 1.72 | 
14 | COc1ccc(N(C)C(=O)[C@H](Cc2ccccc2)NC(=O)Cn2cc(-c3ccc(NC(=O)c4ccc(C)cc4)cc3)nn2)cc1 | > 16.6 | > 16.6 |  | 
15 | COc1ccc(N(C)C(=O)[C@H](Cc2ccccc2)NC(=O)Cn2cc(-c3ccccc3NC(=O)c3ccc(-c4ccccc4)cc3)nn2)cc1 | > 15 | > 15 |  | 
16 | COc1ccc(N(C)C(=O)[C@H](Cc2ccccc2)NC(=O)Cn2cc(-c3ccccc3N)nn2)cc1 | > 20.6 | 3.92 | > 5.27 | 
17 | COc1ccc(N(C)C(=O)[C@H](Cc2ccccc2)NC(=O)Cn2cc(-c3ccc(NC(=O)c4ccc(F)cc4)cc3)nn2)cc1 | > 16.5 | 13 | > 1.27 | 
18 | COc1ccc(C(=O)Nc2ccc(-c3cn(CC(=O)N[C@@H](Cc4ccccc4)C(=O)N(C)c4ccc(OC)cc4)nn3)cc2)cc1 | > 16.2 | > 16.2 |  | 
19 | COc1ccc(N(C)C(=O)[C@H](Cc2ccccc2)NC(=O)Cn2cc(-c3cccc(NC(=O)c4ccccc4OC)c3)nn2)cc1 | > 16.2 | > 16.2 |  | 
20 | COc1ccc(N(C)C(=O)[C@H](Cc2ccccc2)NC(=O)Cn2cc(-c3cccc(NC(=O)c4ccc(C)cc4)c3)nn2)cc1 | > 16.6 | > 16.6 |  | 
21 | COc1ccc(N(C)C(=O)[C@H](Cc2ccccc2)NC(=O)Cn2cc(-c3cccc(NC(=O)c4ccccc4)c3)nn2)cc1 | > 17 | 12.7 | > 1.33 | 
